The target in one assay is T1, aureolysin (ALN) (Staphylococcus aureus, UniProt P81177).
T1 construct: purchased BioCentrum Ltd. (Kraków, Poland)
Kind of assay: Inhibition of aureolysin (ALN), substrate McaRPPGFSAFK(Dnp)-OH. In kind it is biochemical. Here is the method:
(§1) McaPLGL(Dpa)AR-NH2 was used as a substrate for MMP-9 and MMP-14, while McaRPPGFSAFK(Dnp)-OH was used as substrate for ALN, PLN and TLN. The reaction velocities/initial rates (v) were determined at 37 °C, at an excitation wavelength of 320 nm and an emission wavelength of 405 nm with a slit width of 10 nm using either a Perkin Elmer LS 50 Luminescence spectrometer and the FL WinLab Software Package (Perkin Elmer) or a Clario Star microplate reader (CLARIOstar® BMG LABTECH).
(§2) The test compounds were dissolved in 100% DMSO giving a concentration of 10 mM. A fixed substrate concentration of 4.0 µM in a total volume of 100 µL 0.1 M Hepes pH 7.5, 10 mM CaCl2, 0.005% Brij-35 and 1.0% DMSO, were used in all assays, except for ALN where the substrate concentration was 5.0 µM. The fixed enzyme concentrations were as follows; 0.05 nM MMP-9, 1.0 nM MMP-14, 1.4 nM ALN, 0.5 nM PLN and 0.21 nM TLN. Time-dependent inhibitory experiments without and with 100 μM of testing compounds were performed as follows. Compounds were either pre-incubated with the proteases for 15, 30 and 45 min at room temperature and the enzymatic reaction was started by adding the substrate, or not pre-incubated, i.e., the reaction was started by adding the protease to the mixture of substrate and compound. Control tests without compound present were performed in the same way. The reaction was followed for 30 min at 37 °C.
(§3) Enzymes with and without inhibitor were pre-incubated for 30 min at room temperature, and initial rate assays were performed as described above. Assays were performed using a Clario Star microplate reader (CLARIOstar® BMG LABTECH). The IC50 values were calculated in Graph Pad Prism 5 using Equation (1):(1) vi/v0=1/(1+10^(pIC50−pI)) where vi is the enzyme activity in the presence of inhibitor, v0 the activity in the absence of inhibitor, pI = −log [Inhibitor] in M and pIC50 = −log IC50 in M. All experiments were performed in at least triplicate.

For assay [1], the target named is T2, human MT1-MMP/MMP-14 (catalytic domain) (Homo sapiens, UniProt P50281).
T2 construct: human MT1-MMP/MMP-14 (catalytic domain); purchased Calbiochem (San Diego, CA, USA)
Kind of assay: Inhibition of MMP-14, fluorescence quenched peptide substrate McaPLGL(Dpa)AR-NH2. It counts as biochemical. The following applies: substrate McaPLGL(Dpa)AR-NH2 4 µM; 30 min pre-incubation at room temperature; calculated from IC50; read-out: Ki ± s.d. MMP-14. Here is the method:
as §1, §2, §3

A further assay concerns the target T3, recombinant human MMP-9 (Homo sapiens, UniProt P14780).
T3 construct: made in house; host or cells: Sf9 insect cells
The experiment in a line: Inhibition of MMP-9, fluorescence quenched peptide substrate McaPLGL(Dpa)AR-NH2. It counts as biochemical. The conditions noted are these: substrate McaPLGL(Dpa)AR-NH2 4 µM; 30 min pre-incubation at room temperature; calculated from IC50; read-out: Ki ± s.d. MMP-9. Here is the method:
The expression and purification of recombinant human full-length proMMP-9 (rpMMP-9) from Sf9 insect cells were performed as described previously. The amount of proMMP-9 was estimated spectrophotometrically at 280 nm using ε280 nm = 114.36 mM^−1 cm^−1 [48]. Activation of the recombinant proMMP-9 was performed with APMA (auto-activation) as described previously. The amount of active MMP-9 was determined by active site titration using galardin also described previously.
as §1, §2, §3

The target of a further assay is T4, pseudolysin (PLN) (Pseudomonas aeruginosa, UniProt P14756).
T4 construct: purchased Calbiochem (San Diego, CA, USA)
The experiment in a line: Inhibition of pseudolysin (PLN), substrate McaRPPGFSAFK(Dnp)-OH. It counts as biochemical. Here is the method: as §1, §2, §3

The target in another assay is T5, thermolysin (TLN) (Bacillus thermoproteolyticus, UniProt P00800).
T5 construct: purchased Calbiochem (San Diego, CA, USA)
Kind of assay: Inhibition of thermolysin (TLN), substrate McaRPPGFSAFK(Dnp)-OH. It counts as biochemical. The following applies: substrate McaRPPGFSAFK(Dnp)-OH 4 µM; 30 min pre-incubation at room temperature; calculated from IC50; read-out: Ki ± s.d. TLN. Here is the method: as §1, §2, §3

For assay [2] the following is noted: in solution; read-out: Kd for zinc; cited from earlier work.

Here are results for one molecule from publication PMC8746695, “Zinc-Chelating Compounds as Inhibitors of Human and Bacterial Zinc Metalloproteases” (Molecules, 2021).

SMILES strings stand for the structures.

T3 sequence (P14780 107-707 limits assumed): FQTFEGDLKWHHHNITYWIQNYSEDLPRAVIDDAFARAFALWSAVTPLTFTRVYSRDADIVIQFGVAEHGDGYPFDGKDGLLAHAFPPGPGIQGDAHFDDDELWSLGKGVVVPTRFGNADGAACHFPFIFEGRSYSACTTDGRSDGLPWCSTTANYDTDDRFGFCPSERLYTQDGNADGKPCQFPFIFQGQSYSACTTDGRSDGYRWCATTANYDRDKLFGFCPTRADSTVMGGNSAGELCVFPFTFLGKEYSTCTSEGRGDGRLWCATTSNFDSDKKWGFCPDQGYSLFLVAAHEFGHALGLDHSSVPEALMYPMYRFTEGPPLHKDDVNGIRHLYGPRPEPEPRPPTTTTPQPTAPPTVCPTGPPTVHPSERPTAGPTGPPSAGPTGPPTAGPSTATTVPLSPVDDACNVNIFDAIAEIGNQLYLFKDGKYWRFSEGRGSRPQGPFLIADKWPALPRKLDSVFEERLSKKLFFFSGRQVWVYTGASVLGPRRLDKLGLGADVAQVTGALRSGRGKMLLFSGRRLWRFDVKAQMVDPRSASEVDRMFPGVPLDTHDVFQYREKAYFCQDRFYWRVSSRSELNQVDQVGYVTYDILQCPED
T4 sequence (P14756 198-498): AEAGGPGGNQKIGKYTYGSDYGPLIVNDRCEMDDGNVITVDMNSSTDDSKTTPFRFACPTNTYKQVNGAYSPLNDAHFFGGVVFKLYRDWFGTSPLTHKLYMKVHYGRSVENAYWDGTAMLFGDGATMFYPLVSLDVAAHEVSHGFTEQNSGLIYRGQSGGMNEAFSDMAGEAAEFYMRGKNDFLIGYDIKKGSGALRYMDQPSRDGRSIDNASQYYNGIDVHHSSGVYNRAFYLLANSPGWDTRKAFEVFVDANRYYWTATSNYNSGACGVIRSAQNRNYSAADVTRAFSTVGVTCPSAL
T1 sequence (P81177 209-509): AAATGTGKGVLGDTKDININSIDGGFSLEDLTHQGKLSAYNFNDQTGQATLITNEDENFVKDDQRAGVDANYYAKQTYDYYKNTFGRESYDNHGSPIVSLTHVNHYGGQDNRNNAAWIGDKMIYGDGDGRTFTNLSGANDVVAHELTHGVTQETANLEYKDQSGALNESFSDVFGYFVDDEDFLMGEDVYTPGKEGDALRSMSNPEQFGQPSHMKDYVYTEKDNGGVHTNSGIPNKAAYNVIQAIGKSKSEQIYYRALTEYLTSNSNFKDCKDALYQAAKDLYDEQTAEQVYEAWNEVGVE
T5 sequence (P00800 233-548): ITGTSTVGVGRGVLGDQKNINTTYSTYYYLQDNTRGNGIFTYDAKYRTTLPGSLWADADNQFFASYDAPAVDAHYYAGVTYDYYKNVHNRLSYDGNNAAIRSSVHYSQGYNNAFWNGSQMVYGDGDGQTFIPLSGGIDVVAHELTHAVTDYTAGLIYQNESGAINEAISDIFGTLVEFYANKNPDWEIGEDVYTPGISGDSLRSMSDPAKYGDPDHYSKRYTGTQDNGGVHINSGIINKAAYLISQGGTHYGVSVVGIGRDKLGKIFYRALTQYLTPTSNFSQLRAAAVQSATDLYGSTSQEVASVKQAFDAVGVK

In the case of `c1ccc(CN(Cc2ccccn2)Cc2ccccn2)nc1` [TPA, tri(2-pyridinemethyl)amine, reference compound], the Ki on aureolysin (ALN) was 16 ± 1 µM; in assay [1] it was 1200 ± 100 nM; at recombinant human MMP-9, 15 ± 4 µM; on pseudolysin (PLN) it was 5 ± 2 µM; at thermolysin (TLN), 5.5 ± 0.9 µM. Besides, in assay [2], the Kd is approximately 0.01 nM.
